15 compounds from ChEMBL document CHEMBL3112496, “C1,C2-ether derivatives of the Amaryllidaceae alkaloid lycorine: retention of activity of highly lipophilic analogues against cancer cells” (Bioorg Med Chem Lett, 2014) can be followed below.

The test system of data set [1] is A549. The data set can be described thus: Growth inhibition of human A549 cells by MTT assay. Format: functional.
Data set [2] relates to SK-MEL-28. The data set can be described thus: Growth inhibition of human SK-MEL-28 cells by MTT assay. Format: functional.
Data set [3] is described as follows: Lipophilicity, log P of the compound. The format is physicochemical. To be noted: octanol/water.
Data set [4] can be described thus: Growth inhibition of human Hs683 cells by MTT assay. The format is functional. The conditions noted are these: Hs 683.
Data set [5] relates to T98G. The data set can be described thus: Growth inhibition of human T98G cells by MTT assay. Format: functional.
Data set [6] concerns B16-F10. The data set can be described thus: Growth inhibition of mouse B16F10 cells by MTT assay. Format: functional.
For data set [7], the system named is MCF7. The data set can be described thus: Growth inhibition of human MCF7 cells by MTT assay. Format: functional.

Consider `C1=C2CCN3Cc4cc5c(cc4[C@H]([C@H](OCC4CC4)[C@H]1OCC1CC1)[C@@H]23)OCO5`, for which the GI50 came out at 4.2 µM in data set [1]; 33 µM in data set [2]; 23 µM in data set [4]; 37 µM in data set [5]; 27 µM in data set [6]; 28 µM in data set [7]. In addition, in data set [3], the logP stood at 1.19.

In the case of `O[C@H]1[C@H]2c3cc4c(cc3CN3CCC(=C[C@@H]1O)[C@H]23)OCO4` [LYCORINE], the GI50 in data set [1] is 3 µM; in data set [2], 3.7 µM; in data set [4], 2.1 µM; in data set [5], 5.2 µM; in data set [6], 2.6 µM; in data set [7], 10.9 µM. In data set [3], this compound had a logP of -0.78.

With `C=Cc1cccc2c1N(C)Cc1cc3c(cc1-2)OCO3`, the GI50 in data set [1] is 54 µM; in data set [2], 59 µM; in data set [4], above 100 µM; in data set [5], 89 µM; in data set [6] it was 34 µM; in data set [7], 82 µM.

For `COCCO[C@H]1[C@H]2c3cc4c(cc3CN3CCC(=C[C@@H]1OCCOC)[C@H]23)OCO4`, the 50% growth inhibitory concentration (GI50) is 29 µM in data set [1]; 68 µM in data set [2]; above 100 µM in data set [4]; 33 µM in data set [5]; 38 µM in data set [6]; 44 µM in data set [7].

On to `C=CCCO[C@H]1C=C2CCN3Cc4cc5c(cc4[C@H]([C@@H]1O)[C@@H]23)OCO5`, for which the GI50 was 11 µM in data set [1]; 42 µM in data set [2]; 67 µM in data set [4]; 39 µM in data set [5]; 21 µM in data set [6]; 7.7 µM in data set [7].

With `CCO[C@H]1[C@H]2c3cc4c(cc3CN3CCC(=C[C@@H]1OCC)[C@H]23)OCO4`, the GI50 in data set [1] turned out to be 4 µM; in data set [2], 35 µM; in data set [4], 5.9 µM; in data set [5], 8.1 µM; in data set [6], 18 µM; in data set [7], 17 µM.

In the case of `C#CCCCO[C@H]1C=C2CCN3Cc4cc5c(cc4[C@H]([C@@H]1O[Si](C(C)C)(C(C)C)C(C)C)[C@@H]23)OCO5`, the GI50 in data set [1] is 5.9 µM; in data set [2] it was 32 µM; in data set [4], 40 µM; in data set [5] it was 16 µM; in data set [6] it was 9 µM; in data set [7], 31 µM.

With `O[C@H]1[C@H]2c3cc4c(cc3CN3CCC(=C[C@@H]1OC/C=C/c1ccccc1)[C@H]23)OCO4`, the GI50 in data set [1] was found to be 1.5 µM; in data set [2] it was 14 µM; in data set [4] it was 8.6 µM; in data set [5], 10 µM; in data set [6], 4.2 µM; in data set [7] it was 3.8 µM.

On to `CC(C)=CCO[C@H]1[C@H]2c3cc4c(cc3CN3CCC(=C[C@@H]1OCC=C(C)C)[C@H]23)OCO4`, for which the GI50 in data set [1] was determined as 4.4 µM; in data set [2], 10 µM; in data set [4], 9.7 µM; in data set [5] it was 24 µM; in data set [6] it was 5.3 µM; in data set [7], 9.5 µM.

As to `C#CCCCO[C@H]1[C@H]2c3cc4c(cc3CN3CCC(=C[C@@H]1OCCCC#C)[C@H]23)OCO4`, the GI50 in data set [1] was 1.3 µM; in data set [2], 25 µM; in data set [4] it was 32 µM; in data set [5], 7.1 µM; in data set [6], 17 µM; in data set [7], 22 µM.

Turning to `C1=C2CCN3Cc4cc5c(cc4[C@H]([C@H](OC/C=C/c4ccccc4)[C@H]1OC/C=C/c1ccccc1)[C@@H]23)OCO5`, the GI50 in data set [1] stood at 5.5 µM; in data set [2] it was 8.7 µM; in data set [4] it was 11 µM; in data set [5], 22 µM; in data set [6] it was 4.2 µM; in data set [7], 4.2 µM.

Consider `CSCO[C@H]1C=C2CCN3Cc4cc5c(cc4[C@H]([C@@H]1O)[C@@H]23)OCO5`, for which the GI50 in data set [1] is 60 µM; in data set [2] it was above 100 µM; in data set [4], 86 µM; in data set [5], above 100 µM; in data set [6], 51 µM; in data set [7], 70 µM.

Consider `CO[C@H]1[C@H]2c3cc4c(cc3CN3CCC(=C[C@@H]1O)[C@H]23)OCO4`, for which the GI50 in data set [1] was 43 µM; in data set [2], above 100 µM; in data set [4] it was above 100 µM; in data set [5] it was 64 µM; in data set [6], 39 µM; in data set [7], above 100 µM.

With `COCO[C@H]1[C@H]2c3cc4c(cc3CN3CCC(=C[C@@H]1OCOC)[C@H]23)OCO4`, the GI50 in data set [1] is 33 µM; in data set [2] it was 78 µM; in data set [4], above 100 µM; in data set [5], 53 µM; in data set [6], 31 µM; in data set [7] it was 55 µM.

As for `C#CCCCCO[C@H]1C=C2CCN3Cc4cc5c(cc4[C@H]([C@@H]1O)[C@@H]23)OCO5`, the GI50 amounted to 11 µM in data set [1]; 49 µM in data set [2]; 55 µM in data set [4]; 34 µM in data set [5]; 34 µM in data set [6]; 32 µM in data set [7].
